Assay results as given in patent US6924251B1, “Substituted benzoylcyclohexandiones” (Bayer Aktiengesellschaft, priority 1998, dated 2005).

Test: logP determination by HPLC (reversed-phase C18), EEC Directive 79/831 Annex V.A8
Settings: Table 3, compounds of formula (IV); labelled a): acidic range, 0.1% aqueous phosphoric acid, acetonitrile, linear gradient 10% to 90% acetonitrile; 43° C.

Question: With `COC(=O)c1ccc(Cl)c(Cn2nc(SC)n(C)c2=O)c1Cl` [IV-3] as the compound, how does the logP read?
Answer: m.p.: 229 °C logP = 2.27^a)

Question: With `CCOc1nn(Cc2c(Cl)ccc(C(=O)OC)c2Cl)c(=O)n1C` [IV-4] as the compound, how does the logP read?
Answer: m.p.: 120 °C logP = 2.38^a)

Question: Which logP does the source give for `COC(=O)c1ccc(Cl)c(Cn2nc(C3CC3)n(C3CC3)c2=O)c1Cl` [IV-5] here?
Answer: m.p.: 127 °C logP = 2.55^a)

Question: For `COC(=O)c1ccc(Cl)c(Cn2nc(OC)n(C)c2=O)c1Cl` [IV-6], which logP is on record?
Answer: m.p.: 121 °C logP = 2.04^a)

Question: For `COC(=O)c1ccc(Cl)c(Cn2nc(OC(C)C)n(C)c2=O)c1Cl` [IV-7], which logP is on record?
Answer: m.p.: 68 °C logP = 2.73^a)

Question: Which logP does the source give for `COC(=O)c1ccc(Cl)c(Cn2nc(OCC(F)(F)F)n(C)c2=O)c1Cl` [IV-8] here?
Answer: m.p.: 129 °C logP = 2.72^a)

Question: With `COC(=O)c1ccc(Cl)c(Cn2nc(Br)n(C)c2=O)c1Cl` [IV-9] as the compound, how does the logP read?
Answer: m.p.: 164 °C logP = 2.18^a)

Question: Which logP does the source give for `COC(=O)c1ccc(Cl)c(Cn2ncn(C)c2=O)c1Cl` [IV-10] here?
Answer: m.p.: 158 °C logP = 1.55^a)

Question: For `COC(=O)c1ccc(Cl)c(Cn2nc(C3CC3)n(C)c2=O)c1Cl` [IV-11], which logP is on record?
Answer: m.p.: 106 °C logP = 2.16^a)

Question: Which logP does the source give for `COC(=O)c1ccc(Cl)c(Cn2nc(N(C)C)n(C)c2=O)c1Cl` [IV-12] here?
Answer: m.p.: 126 °C logP = 2.11^a)

Question: Which logP does the source give for `COC(=O)c1ccc(Cl)c(Cn2nc(C)n(C)c2=O)c1Cl` [IV-13] here?
Answer: m.p.: 146 °C logP = 1.65^a)

Question: For `COC(=O)c1ccc(Cl)c(Cn2nc3n(c2=O)CCCC3)c1Cl` [IV-14], which logP is on record?
Answer: m.p.: 178 °C logP = 1.86^a)

Question: For `COC(=O)c1ccc(Cl)c(Cn2nc(OC)n(C3CC3)c2=O)c1Cl` [IV-15], which logP is on record?
Answer: m.p.: 97 °C logP = 2.36^a)

Question: For `CCOc1nn(Cc2c(Cl)ccc(C(=O)OC)c2Cl)c(=O)n1C1CC1` [IV-16], which logP is on record?
Answer: m.p.: 99 °C logP = 2.73^a)

Question: Which logP does the source give for `COC(=O)c1ccc(Cl)c(Cn2nc(OC(C)C)n(C3CC3)c2=O)c1Cl` [IV-17] here?
Answer: m.p.: 56 °C logP = 3.08^a)

Question: Which logP does the source give for `COC(=O)c1ccc(Cl)c(Cn2nc(OCC(F)(F)F)n(C3CC3)c2=O)c1Cl` [IV-18] here?
Answer: m.p.: 102 °C logP = 3.05^a)

Question: With `COC(=O)c1ccc(Cl)c(Cn2nc(SC)n(C3CC3)c2=O)c1Cl` [IV-19] as the compound, how does the logP read?
Answer: m.p.: 131 °C logP = 2.70^a)

Question: With `COC(=O)c1ccc(Cl)c(Cn2nc(C)n(C3CC3)c2=O)c1Cl` [IV-20] as the compound, how does the logP read?
Answer: m.p.: 135 °C logP = 1.97^a)

Question: For `COC(=O)c1ccc(Cl)c(Cn2nc(N(C)C)n(C3CC3)c2=O)c1Cl` [IV-21], which logP is on record?
Answer: m.p.: 143 °C logP = 2.42^a)

Question: With `CCOn1c(CC)nn(Cc2c(Cl)ccc(C(=O)OC)c2Cl)c1=O` [IV-22] as the compound, how does the logP read?
Answer: m.p.: 85 °C logP = 2.58^a)

Question: Which logP does the source give for `COC(=O)c1ccc(Cl)c(CN2CCN(C)C2=O)c1Cl` [IV-23] here?
Answer: logP = 1.98^a)

Question: Which logP does the source give for `COC(=O)c1ccc(Cl)c(CN2CCCN(C)C2=O)c1Cl` [IV-24] here?
Answer: logP = 2.07^a)

Question: Which logP does the source give for `COC(=O)c1ccc(Cl)c(CN2C(=O)c3ccccc3S2(=O)=O)c1Cl` [IV-25] here?
Answer: m.p.: 157 °C logP = 2.94^a)

Question: Which logP does the source give for `CCOC(=O)c1ccc(S(C)(=O)=O)cc1CN1C(=O)CCC1=O` [IV-33] here?
Answer: logP = 1.53^a)

Question: For `CCOC(=O)c1ccc(Br)cc1Cn1nc(CC)n(OCC)c1=O` [IV-34], which logP is on record?
Answer: logP = 3.24^a)

Question: With `CCOC(=O)c1ccc(Br)cc1Cn1nc(C(F)(F)F)n(C)c1=O` [IV-35] as the compound, how does the logP read?
Answer: logP = 3.40^a)

Question: With `CCOC(=O)c1ccc(F)cc1Cn1nc(SC)n(C)c1=O` [IV-37] as the compound, how does the logP read?
Answer: logP = 2.45^a)

Question: With `CCOC(=O)c1ccc(Cl)cc1Cn1nc(OCC)n(C2CC2)c1=O` [IV-42] as the compound, how does the logP read?
Answer: logP = 3.23^a)

Question: For `CCOC(=O)c1ccc(Cl)cc1Cn1nc(C(F)(F)F)n(C)c1=O` [IV-43], which logP is on record?
Answer: logP = 3.31^a)

Question: With `CCOC(=O)c1ccc(Cl)cc1Cn1nc(CC)n(OCC)c1=O` [IV-44] as the compound, how does the logP read?
Answer: logP = 3.14^a)

Question: Which logP does the source give for `CCOC(=O)c1ccc([N+](=O)[O-])cc1Cn1nc(OCC)n(C2CC2)c1=O` [IV-45] here?
Answer: logP = 2.42^a)

Question: Which logP does the source give for `CCOC(=O)c1ccc([N+](=O)[O-])cc1Cn1nc(SC)n(C)c1=O` [IV-46] here?
Answer: logP = 2.82^a)

Question: With `CCOC(=O)c1ccc(C(F)(F)F)cc1Cn1nc(OCC)n(C2CC2)c1=O` [IV-47] as the compound, how does the logP read?
Answer: logP = 3.48^a)

Question: Which logP does the source give for `CCOC(=O)c1ccc(C(F)(F)F)cc1Cn1nc(CC)n(OCC)c1=O` [IV-48] here?
Answer: logP = 3.38^a)
